Experimental data: the supplement of paper PMC10307832

Legend:
Experiment in all cases: relative viability (nuclei count vs DMSO), 5 days (fraction); higher = more cells survive
[1] = test system: 201T
In short: (§1)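 Dosing by pin tool came one day after lung cancer cell lines were seeded in 1536-well plates, using either one drug or a fixed anchor-drug dose plus five library-drug doses (not always all listed) in √10 steps. After 5 days, nuclei were counted on 4× images. Relative viability is treated-well nuclei count divided by vehicle-well nuclei count, and values are medians of duplicate plates.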

[2] = test system: COR-L23
In short: as §1

[3] = test system: EPLC-272H
In short: as §1

[4] = test system: H3255
In short: as §1

[5] = test system: HCC-15
In short: as §1

[6] = test system: LOU-NH91
In short: as §1

[7] = test system: NCI-H1563
In short: as §1

[8] = test system: NCI-H1650
In short: as §1

[9] = test system: NCI-H1734
In short: as §1

[10] = test system: NCI-H1793
In short: as §1

[11] = test system: NCI-H2023
In short: as §1

COc1cc2nccc(Oc3ccc(NC(=O)Nc4cc(C)on4)c(Cl)c3)c2cc1OC [Tivozanib] + CS(=O)(=O)N1CCN(Cc2cc3nc(-c4cccc5[nH]ncc45)nc(N4CCOCC4)c3s2)CC1 [Pictilisib] (partner 1 µM)
relative viability ([1]; first compound 0.005 µM): 0.377 | relative viability ([1]; first compound 0.01581 µM): 0.69 | relative viability ([1]; first compound 0.05 µM): 0.686 | relative viability ([1]; first compound 0.1581 µM): 0.588 | relative viability ([1]; first compound 0.5 µM): 0.632 | relative viability ([2]; first compound 0.005 µM): 0.733 | relative viability ([2]; first compound 0.01581 µM): 0.74 | relative viability ([2]; first compound 0.05 µM): 0.917 | relative viability ([2]; first compound 0.1581 µM): 0.575 | relative viability ([2]; first compound 0.5 µM): 0.565 | relative viability ([3]; first compound 0.005 µM): 0.311 | relative viability ([3]; first compound 0.01581 µM): 0.31 | relative viability ([3]; first compound 0.05 µM): 0.326 | relative viability ([3]; first compound 0.1581 µM): 0.285 | relative viability ([3]; first compound 0.5 µM): 0.162 | relative viability ([4]; first compound 0.005 µM): 0.451 | relative viability ([4]; first compound 0.01581 µM): 0.435 | relative viability ([4]; first compound 0.05 µM): 0.538 | relative viability ([4]; first compound 0.1581 µM): 0.449 | relative viability ([4]; first compound 0.5 µM): 0.421 | relative viability ([5]; first compound 0.005 µM): 0.631 | relative viability ([5]; first compound 0.01581 µM): 0.641 | relative viability ([5]; first compound 0.05 µM): 0.719 | relative viability ([5]; first compound 0.1581 µM): 0.588 | relative viability ([5]; first compound 0.5 µM): 0.717 | relative viability ([6]; first compound 0.005 µM): 0.467 | relative viability ([6]; first compound 0.01581 µM): 0.519 | relative viability ([6]; first compound 0.05 µM): 0.559 | relative viability ([6]; first compound 0.1581 µM): 0.485 | relative viability ([6]; first compound 0.5 µM): 0.526 | relative viability ([7]; first compound 0.005 µM): 0.668 | relative viability ([7]; first compound 0.01581 µM): 0.729 | relative viability ([7]; first compound 0.05 µM): 0.622 | relative viability ([7]; first compound 0.1581 µM): 0.699 | relative viability ([7]; first compound 0.5 µM): 0.581 | relative viability ([8]; first compound 0.005 µM): 0.561 | relative viability ([8]; first compound 0.01581 µM): 0.594 | relative viability ([8]; first compound 0.05 µM): 0.621 | relative viability ([8]; first compound 0.1581 µM): 0.558 | relative viability ([8]; first compound 0.5 µM): 0.498 | relative viability ([9]; first compound 0.005 µM): 0.45 | relative viability ([9]; first compound 0.01581 µM): 0.443 | relative viability ([9]; first compound 0.05 µM): 0.456 | relative viability ([9]; first compound 0.1581 µM): 0.359 | relative viability ([9]; first compound 0.5 µM): 0.442 | relative viability ([10]; first compound 0.005 µM): 0.222 | relative viability ([10]; first compound 0.01581 µM): 0.257 | relative viability ([10]; first compound 0.05 µM): 0.364 | relative viability ([10]; first compound 0.5 µM): 0.292 | relative viability ([11]; first compound 0.005 µM): 0.238 | relative viability ([11]; first compound 0.01581 µM): 0.228
